Here are results for one molecule from patent publication US4690935A, “Inhibition of tumor growth and metastasis with calcium channel blocker compounds” (Wayne State University, priority 1983, dated 1987).

This assay concerns Platelet. The assay is described as follows: Tumor cell (Lewis Lung Carcinoma, 3LL) induced platelet aggregation (TCIPA). The class given is cell-based, human. The conditions noted are these: 3LL cells. Here is the method: Blood (45 ml) was drawn from the […] vein of healthy, fasted, aspirin free (at least two weeks) human volunteers into a plastic syringe containing 5 ml of 4.8% dextrose with 50 U/ml heparin buffered by 25 mM HEPES, pH 7.5. An 18 gauge needle was used to prevent hemolysis. The heparinized blood was gently mixed by inverting the syringe five times and then the blood was transfused into two 40 ml plastic centrifuge tubes and centrifuged for 10 min at 163×g. The resulting platelet rich plasma (PRP; the supernatant fraction) was decanted using an adjustable SMI pipette set at 6 ml. Platelet poor plasma (PPP) was prepared by centrifugation of PRP for 10 min at 1086×g. Platelet poor plasma was used to standardize the platelet concentration in PRP to 3×10^8 /ml. Platelet concentrations were determined using a Coulter Model ZBI cell counter.
Platelet aggregation was measured photometrically using a Sienco Model DP-247E dual channel aggregometer and recorded on a Sienco Model B-5000 dual channel recorder. Aliquots of PRP (250 microliters at 3×10^8 platelets/ml) were transferred into aggregometry cuvettes and stirred at a constant speed of 800 RPM at 37° C. Platelet aggregation studies were designed and run as individually controlled samples. BAY e 9736 was dissolved in either PEG-400 or […] (DMSO).
BAY e 9736 in PEG-400 alone was aliquoted into the cuvettes prior to the addition of the PRP. Immediately after the addition of the PRP, the cuvettes were placed into the aggregometer. After two minutes (to allow for the stabilization of the platelet preparation and mixing of the BAY e 9736), ADP or tumor cells were added in 20 microliter aliquots to induce platelet aggregation.
The calcium channel blocker nifedipine was tested for its ability to inhibit tumor cell induced platelet aggregation (TCIPA). Nifedipine (20 mg) was dissolved in one milliliter of abolute ethanol:PEG-400 (1:1), and then diluted 1:10 with the same ethanol:PEG-400 mixture. […]

Usually inhibition stands for the relative decrease from the control value, in per cent. In the case of `COC(=O)C1=C(C)NC(C)=C(C(=O)OC)C1c1ccccc1[N+](=O)[O-]` [nifedipine], the “effect on tumor cell induced platelet aggregation (in words)” value was “can inhibit TCIPA in a dose dependent fashion”. For the same molecule, for the setting “Homo sapiens, 0.015 mg/ml, read-out: INHIBITION OF CONTROL TCIPA”, the inhibition at 15 µg/mL came to 22%. The inhibition at 150 µg/mL (Homo sapiens, 0.15 mg/ml, read-out: INHIBITION OF CONTROL TCIPA) came to 42%.
